Measurements reported in ChEMBL document CHEMBL5715260, “Selectivity Literature for EUbOPEN Chemogenomic Library” (2024).
Blank lines part the entries; values can stand above or below the compound they belong to. Where a SMILES comes first, the peptide text is derived from it. The star is where a group is joined. Cbz = O=C(OCc1ccccc1)*; CH2F = FC*

Columns and labels:
Design in all cases: recommended concentration 1 uM
Caspase-6 = Caspase-6 (Homo sapiens, UniProt P55212); experiment: Selectivity interaction (Eurofins (enzymatic assay)) EUB0002201a CASP6
Chain of Caspase-6 (P55212 24-179 limits assumed): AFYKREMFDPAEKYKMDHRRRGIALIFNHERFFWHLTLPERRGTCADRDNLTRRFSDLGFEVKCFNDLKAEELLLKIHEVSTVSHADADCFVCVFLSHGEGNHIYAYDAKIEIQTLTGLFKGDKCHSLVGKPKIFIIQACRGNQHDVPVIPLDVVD
Chain of Caspase-6 (P55212 194-293 limits assumed): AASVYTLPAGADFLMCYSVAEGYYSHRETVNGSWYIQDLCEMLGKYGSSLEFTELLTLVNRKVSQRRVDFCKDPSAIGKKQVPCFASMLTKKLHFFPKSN

Caspase-10 [1] = target: T1, Caspase-10 (Homo sapiens, UniProt Q92851); experiment: Selectivity interaction (Eurofins (enzymatic assay)) EUB0002201a CASP10
T1 sequence (Q92851 whole entry): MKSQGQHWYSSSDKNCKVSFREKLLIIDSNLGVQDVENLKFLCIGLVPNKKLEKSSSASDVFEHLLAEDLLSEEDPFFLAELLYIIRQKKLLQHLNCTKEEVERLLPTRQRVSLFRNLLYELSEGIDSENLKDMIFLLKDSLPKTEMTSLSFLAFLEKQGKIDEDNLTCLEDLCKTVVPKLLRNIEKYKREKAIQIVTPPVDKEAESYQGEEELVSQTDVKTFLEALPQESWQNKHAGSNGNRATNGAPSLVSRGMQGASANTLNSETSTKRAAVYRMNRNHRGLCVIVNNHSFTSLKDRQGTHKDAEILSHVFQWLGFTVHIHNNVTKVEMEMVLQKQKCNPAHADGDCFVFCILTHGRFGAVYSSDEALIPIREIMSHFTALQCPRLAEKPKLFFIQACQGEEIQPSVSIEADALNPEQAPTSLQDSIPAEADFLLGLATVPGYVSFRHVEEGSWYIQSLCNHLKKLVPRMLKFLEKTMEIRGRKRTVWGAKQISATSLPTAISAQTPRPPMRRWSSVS

Caspase-8 [2] = target: T2, Caspase-8 (Homo sapiens, UniProt Q14790); experiment: Selectivity interaction (Eurofins (enzymatic assay)) EUB0002201a CASP8
T2 sequence (Q14790 217-374 limits assumed): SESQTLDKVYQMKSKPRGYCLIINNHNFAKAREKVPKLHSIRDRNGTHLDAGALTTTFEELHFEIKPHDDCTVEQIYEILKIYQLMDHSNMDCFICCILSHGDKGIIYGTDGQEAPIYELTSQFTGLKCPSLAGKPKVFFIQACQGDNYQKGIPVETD
T2 sequence (Q14790 385-479 limits assumed): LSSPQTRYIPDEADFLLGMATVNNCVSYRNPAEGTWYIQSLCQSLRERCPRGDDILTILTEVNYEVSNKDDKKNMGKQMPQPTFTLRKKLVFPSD

Caspase-5 [3] = target: T3, Caspase-5 (Homo sapiens, UniProt P51878); experiment: Selectivity interaction (Eurofins (enzymatic assay)) EUB0002201a CASP5
T3 sequence (P51878 whole entry): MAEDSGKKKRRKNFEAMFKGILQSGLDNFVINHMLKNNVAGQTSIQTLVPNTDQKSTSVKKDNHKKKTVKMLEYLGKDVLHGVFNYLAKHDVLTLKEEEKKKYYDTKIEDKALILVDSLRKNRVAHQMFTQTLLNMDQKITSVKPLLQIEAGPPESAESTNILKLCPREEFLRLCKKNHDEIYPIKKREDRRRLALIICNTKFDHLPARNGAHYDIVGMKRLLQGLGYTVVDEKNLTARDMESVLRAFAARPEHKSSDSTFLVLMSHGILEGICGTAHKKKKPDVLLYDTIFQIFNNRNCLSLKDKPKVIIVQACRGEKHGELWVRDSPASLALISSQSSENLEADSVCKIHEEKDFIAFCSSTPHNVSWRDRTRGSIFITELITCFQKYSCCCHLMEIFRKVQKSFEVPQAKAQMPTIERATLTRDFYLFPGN

Caspase-3 = Caspase-3 (Homo sapiens, UniProt P42574); experiment: Selectivity interaction (Eurofins (enzymatic assay)) EUB0002201a CASP3
Chain of Caspase-3 (P42574 29-175 limits assumed): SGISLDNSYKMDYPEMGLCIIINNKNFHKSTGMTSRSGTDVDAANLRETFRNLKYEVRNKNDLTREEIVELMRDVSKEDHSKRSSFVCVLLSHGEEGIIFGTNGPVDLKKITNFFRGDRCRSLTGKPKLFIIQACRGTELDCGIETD
Chain of Caspase-3 (P42574 176-277 limits assumed): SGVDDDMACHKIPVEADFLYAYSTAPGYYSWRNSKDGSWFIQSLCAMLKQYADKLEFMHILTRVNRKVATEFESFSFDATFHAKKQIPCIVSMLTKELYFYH

Caspase-7 [4] = target: T4, Caspase-7 (Homo sapiens, UniProt P55210); experiment: Selectivity interaction (Eurofins (enzymatic assay)) EUB0002201a CASP7
T4 sequence (P55210 whole entry): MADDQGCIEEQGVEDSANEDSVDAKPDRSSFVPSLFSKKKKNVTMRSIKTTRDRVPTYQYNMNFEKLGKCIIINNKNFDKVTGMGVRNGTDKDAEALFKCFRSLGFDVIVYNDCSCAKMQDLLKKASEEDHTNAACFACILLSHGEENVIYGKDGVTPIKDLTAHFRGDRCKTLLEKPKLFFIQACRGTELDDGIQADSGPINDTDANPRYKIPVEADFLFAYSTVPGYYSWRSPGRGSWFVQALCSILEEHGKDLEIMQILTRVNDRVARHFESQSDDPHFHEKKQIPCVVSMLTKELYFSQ

Caspase-9 [5] = target: T5, Caspase-9 (Homo sapiens, UniProt P55211); experiment: Selectivity interaction (Eurofins (enzymatic assay)) EUB0002201a CASP9
T5 sequence (P55211 whole entry): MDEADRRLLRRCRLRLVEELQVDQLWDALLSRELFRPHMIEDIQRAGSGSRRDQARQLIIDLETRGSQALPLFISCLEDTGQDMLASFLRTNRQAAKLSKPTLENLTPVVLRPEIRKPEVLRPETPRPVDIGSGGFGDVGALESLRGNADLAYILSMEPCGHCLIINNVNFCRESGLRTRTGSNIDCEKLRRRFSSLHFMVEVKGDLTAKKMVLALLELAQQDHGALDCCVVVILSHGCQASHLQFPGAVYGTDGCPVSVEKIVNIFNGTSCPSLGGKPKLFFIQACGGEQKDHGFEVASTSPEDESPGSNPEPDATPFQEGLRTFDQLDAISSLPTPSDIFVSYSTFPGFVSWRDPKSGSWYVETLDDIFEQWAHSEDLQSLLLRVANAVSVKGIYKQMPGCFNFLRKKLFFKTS

Caspase-2 = Caspase-2 (Homo sapiens, UniProt P42575); experiment: Selectivity interaction (Eurofins (enzymatic assay)) EUB0002201a CASP2
Chain of Caspase-2 (P42575 170-325 limits assumed): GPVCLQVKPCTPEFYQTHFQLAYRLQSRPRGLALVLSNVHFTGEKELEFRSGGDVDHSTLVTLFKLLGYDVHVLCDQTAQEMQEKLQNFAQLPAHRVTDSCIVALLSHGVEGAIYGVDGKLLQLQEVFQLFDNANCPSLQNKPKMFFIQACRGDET
Chain of Caspase-2 (P42575 334-452 limits assumed): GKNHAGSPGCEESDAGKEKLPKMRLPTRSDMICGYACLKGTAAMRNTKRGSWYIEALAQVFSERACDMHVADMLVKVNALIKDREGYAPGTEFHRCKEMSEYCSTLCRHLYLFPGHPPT

Caspase-5 [6] = target: T3, Caspase-5; experiment: Selectivity interaction (Enzymatic assay) EUB0002198aAD CASP5
Caspase-4 = Caspase-4 (Homo sapiens, UniProt P49662); experiment: Selectivity interaction (Enzymatic assay) EUB0002198aAD CASP4
Chain of Caspase-4 (P49662 81-270 limits assumed): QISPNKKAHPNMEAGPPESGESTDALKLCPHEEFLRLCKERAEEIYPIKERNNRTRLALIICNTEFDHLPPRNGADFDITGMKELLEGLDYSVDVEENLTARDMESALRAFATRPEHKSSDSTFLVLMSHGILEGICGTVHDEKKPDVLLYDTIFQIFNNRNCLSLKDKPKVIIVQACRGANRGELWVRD
Chain of Caspase-4 (P49662 290-377 limits assumed): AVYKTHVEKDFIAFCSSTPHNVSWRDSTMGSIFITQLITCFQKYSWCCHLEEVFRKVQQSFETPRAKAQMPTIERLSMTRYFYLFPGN

Caspase-10 [7] = target: T1, Caspase-10; experiment: (§1) Selectivity interaction (Enzymatic assay) EUB0002198aAD CASP10
Caspase-10 [8] = target: T1, Caspase-10; experiment: as §1; remark: listed apart in the source
Caspase-14 = Caspase-14 (Homo sapiens, UniProt P31944); experiment: Selectivity interaction (Enzymatic assay) EUB0002198aAD CASP14
Chain of Caspase-14 (P31944 6-146 limits assumed): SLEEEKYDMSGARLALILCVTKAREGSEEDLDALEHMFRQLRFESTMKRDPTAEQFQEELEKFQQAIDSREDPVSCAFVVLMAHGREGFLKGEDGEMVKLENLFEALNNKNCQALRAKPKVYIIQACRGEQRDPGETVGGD
Chain of Caspase-14 (P31944 153-242 limits assumed): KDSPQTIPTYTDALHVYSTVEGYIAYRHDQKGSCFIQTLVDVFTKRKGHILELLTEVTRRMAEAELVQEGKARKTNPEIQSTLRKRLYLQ

Caspase-10 [9] = target: T1, Caspase-10; experiment: as §1; remark: listed apart in the source
Caspase-9 [10] = target: T5, Caspase-9; experiment: Selectivity interaction (Enzymatic assay) EUB0002198aAD CASP9
[11] = target: N-lysine methyltransferase SMYD2 (Homo sapiens, UniProt Q9NRG4); experiment: Selectivity interaction (Enzymatic assay) EUB0002243aAD SMYD2
Chain of N-lysine methyltransferase SMYD2 (Q9NRG4 whole entry): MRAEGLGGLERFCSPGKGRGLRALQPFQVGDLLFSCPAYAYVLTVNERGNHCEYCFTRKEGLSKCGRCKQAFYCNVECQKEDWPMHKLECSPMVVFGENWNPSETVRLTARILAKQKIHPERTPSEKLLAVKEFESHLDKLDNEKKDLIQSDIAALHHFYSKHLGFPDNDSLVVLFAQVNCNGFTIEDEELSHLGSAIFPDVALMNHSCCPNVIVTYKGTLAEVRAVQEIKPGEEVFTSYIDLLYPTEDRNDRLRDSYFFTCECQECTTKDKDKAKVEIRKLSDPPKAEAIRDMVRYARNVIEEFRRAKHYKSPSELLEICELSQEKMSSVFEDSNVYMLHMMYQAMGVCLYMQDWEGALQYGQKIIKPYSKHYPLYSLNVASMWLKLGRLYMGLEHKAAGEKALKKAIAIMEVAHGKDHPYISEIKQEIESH

Caspase-9 [12] = target: T5, Caspase-9; experiment: Selectivity interaction (Enzymatic assay) EUB0002177aAD CASP9
[13] = target: Poly [ADP-ribose] polymerase tankyrase-1 (Homo sapiens, UniProt O95271); experiment: Selectivity interaction (Enzymatic assay) EUB0002249a TNKS1
Chain of Poly [ADP-ribose] polymerase tankyrase-1 (O95271 whole entry): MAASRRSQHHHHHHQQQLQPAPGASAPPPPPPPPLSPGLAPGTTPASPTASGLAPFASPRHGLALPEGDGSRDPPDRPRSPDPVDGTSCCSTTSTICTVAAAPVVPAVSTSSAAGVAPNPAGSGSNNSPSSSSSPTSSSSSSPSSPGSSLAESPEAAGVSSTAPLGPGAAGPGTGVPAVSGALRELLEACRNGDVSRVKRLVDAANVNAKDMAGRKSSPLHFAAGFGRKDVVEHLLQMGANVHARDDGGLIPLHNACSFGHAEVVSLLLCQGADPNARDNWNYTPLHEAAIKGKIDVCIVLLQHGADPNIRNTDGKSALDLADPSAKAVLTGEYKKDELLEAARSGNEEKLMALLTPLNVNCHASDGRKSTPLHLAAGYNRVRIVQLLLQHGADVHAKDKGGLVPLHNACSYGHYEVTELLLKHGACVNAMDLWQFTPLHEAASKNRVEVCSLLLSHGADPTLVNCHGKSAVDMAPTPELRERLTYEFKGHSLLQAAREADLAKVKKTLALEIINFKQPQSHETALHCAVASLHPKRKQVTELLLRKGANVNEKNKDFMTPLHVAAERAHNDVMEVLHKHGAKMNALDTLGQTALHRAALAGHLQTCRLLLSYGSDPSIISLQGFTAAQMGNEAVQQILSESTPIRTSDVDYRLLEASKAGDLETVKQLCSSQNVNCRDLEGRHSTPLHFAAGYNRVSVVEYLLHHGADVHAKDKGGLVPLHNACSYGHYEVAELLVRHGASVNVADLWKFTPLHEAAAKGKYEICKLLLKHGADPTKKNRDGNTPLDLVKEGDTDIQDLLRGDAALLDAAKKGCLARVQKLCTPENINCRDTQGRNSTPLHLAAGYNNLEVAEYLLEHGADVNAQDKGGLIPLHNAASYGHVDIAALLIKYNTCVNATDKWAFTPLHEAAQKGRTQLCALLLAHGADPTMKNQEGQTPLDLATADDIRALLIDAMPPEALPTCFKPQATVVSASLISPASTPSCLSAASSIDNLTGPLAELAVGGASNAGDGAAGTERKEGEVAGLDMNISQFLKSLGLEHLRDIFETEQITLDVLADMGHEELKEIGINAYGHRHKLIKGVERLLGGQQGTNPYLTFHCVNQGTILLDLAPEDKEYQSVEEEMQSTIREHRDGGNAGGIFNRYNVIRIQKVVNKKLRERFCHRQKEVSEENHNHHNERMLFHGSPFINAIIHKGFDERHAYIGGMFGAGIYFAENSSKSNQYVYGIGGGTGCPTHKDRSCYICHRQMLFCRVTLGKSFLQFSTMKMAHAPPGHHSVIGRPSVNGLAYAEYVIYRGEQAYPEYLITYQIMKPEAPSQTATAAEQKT

[14] = target: Poly [ADP-ribose] polymerase 1 (Homo sapiens, UniProt P09874); experiment: Selectivity interaction (Enzymatic assay) EUB0002249a PARP1
Chain of Poly [ADP-ribose] polymerase 1 (P09874 whole entry): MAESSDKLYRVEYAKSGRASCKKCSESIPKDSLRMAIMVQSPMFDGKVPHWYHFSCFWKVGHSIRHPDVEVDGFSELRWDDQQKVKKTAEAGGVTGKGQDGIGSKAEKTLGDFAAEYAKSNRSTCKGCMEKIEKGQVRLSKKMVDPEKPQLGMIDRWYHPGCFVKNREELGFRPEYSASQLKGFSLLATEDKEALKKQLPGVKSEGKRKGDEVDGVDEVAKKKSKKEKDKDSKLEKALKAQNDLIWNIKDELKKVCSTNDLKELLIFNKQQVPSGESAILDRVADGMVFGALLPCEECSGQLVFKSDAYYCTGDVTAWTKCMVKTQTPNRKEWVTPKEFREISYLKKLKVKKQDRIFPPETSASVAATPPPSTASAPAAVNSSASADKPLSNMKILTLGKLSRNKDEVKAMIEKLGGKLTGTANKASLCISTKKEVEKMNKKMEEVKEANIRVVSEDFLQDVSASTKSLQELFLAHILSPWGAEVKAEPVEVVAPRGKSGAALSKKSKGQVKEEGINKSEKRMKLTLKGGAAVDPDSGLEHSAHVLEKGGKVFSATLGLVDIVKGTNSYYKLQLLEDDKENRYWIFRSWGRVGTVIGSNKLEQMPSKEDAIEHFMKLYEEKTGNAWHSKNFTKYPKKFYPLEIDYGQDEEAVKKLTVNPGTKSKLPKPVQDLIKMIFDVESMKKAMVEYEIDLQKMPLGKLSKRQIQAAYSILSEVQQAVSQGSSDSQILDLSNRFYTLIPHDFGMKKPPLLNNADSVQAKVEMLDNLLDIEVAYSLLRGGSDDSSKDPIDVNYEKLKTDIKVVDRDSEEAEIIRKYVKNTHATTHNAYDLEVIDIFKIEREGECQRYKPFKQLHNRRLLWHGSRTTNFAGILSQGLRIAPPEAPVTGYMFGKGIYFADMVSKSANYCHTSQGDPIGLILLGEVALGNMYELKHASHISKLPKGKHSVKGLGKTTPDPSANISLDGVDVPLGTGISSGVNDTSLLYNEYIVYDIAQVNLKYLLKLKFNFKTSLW

Caspase-7 [15] = target: T4, Caspase-7; experiment: Selectivity interaction (Eurofins (enzymatic assay)) EUB0002202a CASP7
Caspase-9 [16] = target: T5, Caspase-9; experiment: Selectivity interaction (Eurofins (enzymatic assay)) EUB0002202a CASP9
Caspase-8 [17] = target: T2, Caspase-8; experiment: Selectivity interaction (Eurofins (enzymatic assay)) EUB0002202a CASP8

SMILES: CN(C)CCCN(CC[C@H](N)C(=O)O)C[C@H]1O[C@@H](n2cnc3c(N)ncnc32)[C@H](O)[C@@H]1O
Ki [11]: 345 nM

SMILES: CC[C@H](C)[C@H](NC(C)=O)C(=O)N[C@@H](CCC(=O)O)C(=O)N[C@H](C(=O)N[C@H](C=O)CC(=O)O)[C@@H](C)O (Ac-IETD-aldehyde)
IC50 (Caspase-9 [12]): 35 nM

SMILES: NC(=O)c1cccc(NC(=O)CCC(=O)NCCc2cn(CCNS(=O)(=O)c3cccc(C(=O)O)c3)nn2)c1
IC50 [13]: 9040 nM
IC50 [14]: 11700 nM

SMILES: COC(=O)CC[C@H](NC(=O)[C@H](Cc1c[nH]c2ccccc12)NC(=O)OCc1ccccc1)C(=O)N[C@@H](Cc1cnc[nH]1)C(=O)N[C@@H](CC(=O)OC)C(=O)CF (Cbz-WE(OMe)HD(OMe)-CH2F)
IC50 (Caspase-7 [15]): 580 nM
IC50 (Caspase-9 [16]): 240 nM
IC50 (Caspase-8 [17]): 220 nM

Continued, values first:

IC50 (Caspase-6): 57 nM
IC50 (Caspase-10 [1]): 140 nM
IC50 (Caspase-8 [2]): 3.3 nM
IC50 (Caspase-5 [3]): 140 nM
IC50 (Caspase-3): 57 nM
IC50 (Caspase-7 [4]): 24 nM
IC50 (Caspase-9 [5]): 2.1 nM
IC50 (Caspase-2): 1700 nM
SMILES: CC(=O)N[C@@H](CC(C)C)C(=O)N[C@@H](CCC(=O)O)C(=O)N[C@H](C(=O)N[C@H](C=O)CC(=O)O)C(C)C (Ac-LEVD-aldehyde)

IC50 (Caspase-5 [6]): 21.3 nM
IC50 (Caspase-4): 81.7 nM
IC50 (Caspase-10 [7]): 240 nM
IC50 (Caspase-10 [8]): 40.4 nM
IC50 (Caspase-14): 134 nM
IC50 (Caspase-10 [9]): 240 nM
IC50 (Caspase-9 [10]): 49.2 nM
SMILES: CC(=O)N[C@@H](CC(C)C)C(=O)N[C@@H](CCC(=O)O)C(=O)N[C@@H](Cc1cnc[nH]1)C(=O)N[C@H](C=O)CC(=O)O (Ac-LEHD-aldehyde)
